Measured values taken from patent US10813890B2, “Pharmaceutical combination” (Gruenenthal GmbH, priority 2010, dated 2020).
Counter-ions that a name gives are not always drawn. Like-named read-outs stand apart in the source and are kept apart here.

System: inflamed rat hind paw
Assay: Randall-Selitto test in rats (carrageenan-induced acute inflammation, mechanical nociceptive threshold)
Details: for ED50: Rattus norvegicus, 0.25 h, read-out: ED50 (substance applied alone); for analgesic effect: i.p.; for analgesic effect / timepoint of peak effect: substance applied alone; for timepoint of peak effect: p. appl., timepoint of first measurement

SMILES	ED50 (ip) [mg/kg]	analgesic effect	timepoint of peak effect [min]	ED50 (iv) [mg/kg]
CNC1(c2ccccc2Cl)CCCCC1=O (racemic) [ketamine hydrochloride, (R,S)-ketamine hydrochloride]	20.2	dose-dependent analgesic effect	15	–
CC12CC3CC(C)(C1)CC(N)(C3)C2 [memantine hydrochloride]	19.1	dose-dependent analgesic effect	15	–
CC[C@@H](c1cccc(O)c1)[C@@H](C)CN(C)C [tapentadol hydrochloride]	–	–	15	1.75
